Test results reported in article PMC8921294, “Inhibition of mitochondrial LonP1 protease by allosteric blockade of ATP binding and hydrolysis via CDDO and its derivatives” (The Journal of Biological Chemistry, 2022).

Key:
LonP1 F547A/C637V = molecular target: T1, LonP1 F547A/C637V (Homo sapiens, UniProt P36776, C637V/F547A); test: Endpoint ATPase assay, LonP1 F547A/C637V; assay type: biochemical
T1 construct: hexa-histidine (N); made in house; host or cells: Rosetta 2 E. coli
T1 sequence (P36776 68-959 F547A/C637V): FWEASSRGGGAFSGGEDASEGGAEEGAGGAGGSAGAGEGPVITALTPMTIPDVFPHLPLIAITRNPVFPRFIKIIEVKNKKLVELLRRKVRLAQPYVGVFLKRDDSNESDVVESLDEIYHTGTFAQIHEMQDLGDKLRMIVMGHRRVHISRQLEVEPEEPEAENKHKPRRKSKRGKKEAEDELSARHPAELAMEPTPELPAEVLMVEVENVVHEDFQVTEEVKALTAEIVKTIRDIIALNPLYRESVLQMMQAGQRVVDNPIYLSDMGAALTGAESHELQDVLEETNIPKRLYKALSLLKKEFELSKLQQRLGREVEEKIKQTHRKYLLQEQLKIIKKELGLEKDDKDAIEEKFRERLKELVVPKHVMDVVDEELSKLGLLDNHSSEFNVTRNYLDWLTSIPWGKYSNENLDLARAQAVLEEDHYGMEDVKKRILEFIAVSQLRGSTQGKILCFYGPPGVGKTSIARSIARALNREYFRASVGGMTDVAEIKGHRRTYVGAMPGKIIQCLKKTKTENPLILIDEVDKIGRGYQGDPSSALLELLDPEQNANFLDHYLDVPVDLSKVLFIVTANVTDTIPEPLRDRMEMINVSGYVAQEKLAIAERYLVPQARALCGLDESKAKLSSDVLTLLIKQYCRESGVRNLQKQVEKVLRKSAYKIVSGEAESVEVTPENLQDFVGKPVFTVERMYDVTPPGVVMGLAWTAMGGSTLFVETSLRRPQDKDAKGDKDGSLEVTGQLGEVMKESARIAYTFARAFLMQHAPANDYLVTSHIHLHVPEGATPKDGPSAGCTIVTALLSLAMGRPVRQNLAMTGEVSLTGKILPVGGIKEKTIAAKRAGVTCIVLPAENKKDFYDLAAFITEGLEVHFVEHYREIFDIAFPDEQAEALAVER
Procedure: Human mitochondrial LonP1 and mutants lacking the predicted mitochondrial targeting sequence were fused to an N-terminal hexa-histidine affinity tag, expressed in Rosetta 2 E. Coli, and purified using a nickel agarose column as previously described ([72]) and protein concentration and buffer exchange carried out using Amicon Ultra centrifugal filtration. LonP1 mutant constructs were obtained from the PCR-based QuikChange Site-Directed Mutagenesis Kit.
ADP-Glo (Promega) assays were performed according to the manufacturer's protocols. Purified wild-type or mutant LonP1 (400 nM monomer), the 26S proteasome (3 nM), or no enzyme controls were preincubated in 96-well plates (60 min, 25 °C) with ten different concentrations of CDDO and its derivatives, TP-82, enoxolone (5 μM) or DMSO vehicle control in buffer (40 mM Tris-HCl (pH 7.5), 20 mM MgCl2, 0.1 mg/ml BSA and 5% DMSO). The 26S and 20S proteasome were also assayed at 0, 0.75, 1.5, 3, 6, and 12 nM in the absence of CDDO derivatives. […] Assay reagents were used to quench further ATPase activity and generate luminescence signals proportional to the concentration of ADP formed. Background (no enzyme control) luminescence values were subtracted, and resultant values were reported as a percentage of the no drug control (100%). […]

26S proteasome ATPase = tested on: T2, 26S proteasome ATPase; test: Endpoint ATPase assay, purified 26S proteasome; assay type: biochemical, human; conditions: 26S proteasome 3 nM, Fig. 4A
T2 construct: purified from human embryonic kidney cells (HEK293); purchased Boston Biochem Inc.-R&D Systems E-365; host or cells: HEK293
From the text: CDDO and CDDO-Methyl (CDDO-Me) were purchased from Cayman Chemical, CDDO-Imidazole (CDDO-Im) was purchased from Tocris. CDDO-anhydride ([20]) and TP-82 ([71]) were synthesized as reported. Other inhibitors in this study were purchased commercially: MG262 (Boston Biochem), bortezomib (LC Labs) and enoxolone (Cayman Chemical). Antibodies recognizing the following antigens were employed in this study: LonP1 (Proteintech, cat. 15440-1-AP), p53 (Calbiochem, cat. 0P43, lot # D00086815), cleaved PARP (Asp214) (BD Biosciences, cat. 552596), procaspase-3 monoclonal antibody (Transduction Laboratories, cat. C31720), actin (Santa Cruz, cat. sc-1615, lot # F0408), heme oxygenase 1 (Santa Cruz, cat. sc-136960, lot # B1516), TFAM kindly provided by Daniel Bogenhagen (Stony Brook University). Human 26S and 20S proteasome purified from human embryonic kidney cells (HEK293) were purchased commercially (Boston Biochem Inc.-R&D Systems, cat. E-365, lot # 35730210 and cat. E-360, lot # 16918510, respectively).
ADP-Glo (Promega) assays were performed according to the manufacturer's protocols. […] Assay reagents were used to quench further ATPase activity and generate luminescence signals proportional to the concentration of ADP formed. Background (no enzyme control) luminescence values were subtracted, and resultant values were reported as a percentage of the no drug control (100%). […]

CC1(C)CC[C@]2(C(=O)O)CC[C@]3(C)[C@H](C(=O)C=C4[C@@]5(C)C=C(C#N)C(=O)C(C)(C)[C@@H]5CC[C@]43C)[C@@H]2C1 [CDDO, 2-cyano-3,12-dioxooleana-1,9(11)-dien-28-oic acid]
Fold increase in inhibition compared with WT (LonP1 F547A/C637V): 7.4 | IC50 (LonP1 F547A/C637V; end-point ATPase assay, read-out: CDDO IC50): 1900 ± 300 nM | Inhibition of ATP hydrolysis by the 26S proteasome (26S proteasome ATPase): failed to inhibit
